These results are taken from patent US20050043378A1, “LTA4H modulators” (priority 2003, published 2005).

The subject of assay [1] is ex vivo stimulated LTB4 production in blood. Nature of the assay: Murine arachidonic acid-induced inflammation model: ex vivo stimulated LTB4 production. The note with it: Mus musculus, read-out: % Inh. LTB4. The arrangement: species or system female Balb/c mice.
For assay [2], the system named is neutrophil influx (myeloperoxidase, MPO). Put plainly: Murine arachidonic acid-induced inflammation model: neutrophil influx (myeloperoxidase activity in ear biopsies). In kind it is in vivo, female Balb/c mice. The note with it: Mus musculus, read-out: % Inh. MPO.
In assay [3] the test system is ionophore-induced LTB4 production in mouse blood. The note with it: oral administration; cited from earlier work.
The subject of assay [4] is ionophore-induced LTB4 production in rat peritoneum. Conditions: oral administration; cited from earlier work.
Another assay deals with colitis symptoms. The note with it: eight weeks of treatment, cotton top tamarins; cited from earlier work.
The target in assay [5] is T1, recombinant human LTA4 hydrolase (rhLTA4H) (Homo sapiens, UniProt P09960).
T1 construct: made in house; host or cells: Spodoptera frugiperda (Sf-9) cells, baculovirus (pFastBac1)
T1 sequence (P09960 1-611): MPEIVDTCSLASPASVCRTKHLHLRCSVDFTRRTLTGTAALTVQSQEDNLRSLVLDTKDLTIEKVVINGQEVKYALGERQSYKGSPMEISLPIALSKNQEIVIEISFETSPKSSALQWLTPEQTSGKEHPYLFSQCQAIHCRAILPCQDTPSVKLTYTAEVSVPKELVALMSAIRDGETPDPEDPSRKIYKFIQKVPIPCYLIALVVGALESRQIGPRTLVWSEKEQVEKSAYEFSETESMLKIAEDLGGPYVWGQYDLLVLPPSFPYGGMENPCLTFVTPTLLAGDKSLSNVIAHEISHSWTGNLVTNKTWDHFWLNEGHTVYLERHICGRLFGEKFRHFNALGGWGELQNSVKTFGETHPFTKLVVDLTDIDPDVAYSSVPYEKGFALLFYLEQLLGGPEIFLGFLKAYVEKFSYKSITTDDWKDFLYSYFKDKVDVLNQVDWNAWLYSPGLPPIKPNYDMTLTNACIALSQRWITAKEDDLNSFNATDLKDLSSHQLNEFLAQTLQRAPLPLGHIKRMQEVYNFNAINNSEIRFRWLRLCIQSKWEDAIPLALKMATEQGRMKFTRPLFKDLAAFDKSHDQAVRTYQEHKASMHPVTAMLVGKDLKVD
Nature of the assay: Recombinant human LTA4 hydrolase assay for LTA4 hydrolase inhibitor activity.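 Further: enzyme expressed in Sf-9 insect cells, compound preincubated 10 min with enzyme, 10 min reaction at room temperature, uninhibited reaction as positive control, enzyme-free blank as negative control.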 In kind it is biochemical. Conditions: LTA4 substrate, LTB4 by immunoassay, average of one to three determinations.

For assay [6], the system named is LTB4 production by calcium ionophore-stimulated murine blood. Put plainly: LTB4 production by calcium ionophore-stimulated murine blood for LTA4H inhibitor activity. In kind it is cell-based, CD-1 mice.
[7] abbreviates: 30 mg/kg oral gavage, blood taken 3 h after arachidonic acid, ex vivo A23187 stimulation, vs animals without inhibitor.
The mark [8] stands for this setting: 30 mg/kg oral gavage 60 min before topical arachidonic acid to ear, ear biopsies after 3 h, vs animals without inhibitor.
Where [9] appears, read: diluted CD-1 mouse whole blood, A23187 stimulation, LTB4 by immunoassay, read-out: IC50.

pIC50: −log10 of the molar value. Structures can show the parent of a compound that is named as a salt. Where two headings read alike, the source gives them in different places.

As a reminder, the pIC50 is −log10 of the IC50, conventionally taken in molar units.

Turning to `O=C(O)C1CCN(Cc2ccc(Oc3nc4ccccc4s3)cc2)CC1` [Example 250, 1-[4-(Benzothiazol-2-yloxy)-benzyl]-piperidine-4-carboxylic acid], the inhibition at 30 mg/kg in assay [1] (setting [7]) came to 80%. Further, in assay [2] (setting [8]), the inhibition in vivo at 30 mg/kg amounted to 94%.

Take `CN(CCCOc1ccc(Cc2ccccc2)cc1)CCC(=O)O.Cl` [SC57461]: the “inhibition of ionophore-induced LTB4 production in mouse blood ex vivo” value in assay [3] is “caused inhibition of ionophore-induced LTB4 production”. Besides, the “inhibition of ionophore-induced LTB4 production in rat peritoneum in vivo” value in assay [4] is “caused inhibition of ionophore-induced LTB4 production”. Besides, the colitis symptoms result with colitis symptoms was “significantly improved colitis symptoms”.

Take `O=C(CO)N1CCN(CCc2ccc(Oc3nc4ccccc4s3)cc2)CC1` [Example 325, 1-(4-{2-[4-(Benzothiazol-2-yloxy)-phenyl]-ethyl}-piperazin-1-yl)-2-hydroxy-ethanone]: the pIC50 in assay [5] is 7.92. In addition, in assay [1] (setting [7]), the inhibition at 30 mg/kg was determined as 76%. The inhibition in vivo at 30 mg/kg in assay [2] (setting [8]) stood at 67%.

Take `c1ccc2oc(Oc3ccc(OCCN4CCCCC4)cc3)nc2c1` [Example 11, 2-[4-(2-Piperidin-1-yl-ethoxy)-phenoxy]-benzooxazole]: the pIC50 in assay [6] (setting [9]) is 7.36. For the same compound, the inhibition in vivo at 30 mg/kg in assay [2] (setting [8]) worked out at 95%.

Take `OCC1CCCCN1CCOc1ccc(Oc2nc3ccccc3s2)cc1` (stereo not drawn) [Example 263, (1-{2-[4-(Benzothiazol-2-yloxy)-phenoxy]-ethyl}-piperidin-2-yl)-methanol]: the pIC50 in assay [5] is 8.30; in assay [6] (setting [9]), 7.31. For the same compound, the inhibition at 30 mg/kg in assay [1] (setting [7]) worked out at 0%. The inhibition in vivo at 30 mg/kg in assay [2] (setting [8]) was found to be 19%.

In the case of `O=C(O)C1CCN(CCc2ccc(Oc3nc4ccccc4s3)cc2)CC1` [Example 150, 1-{2-[4-(Benzothiazol-2-yloxy)-phenyl]-ethyl}-piperidine-4-carboxylic acid], the pIC50 in assay [5] was 9.00; in assay [6] (setting [9]) it was 7.28. For the same compound, the inhibition at 30 mg/kg in assay [1] (setting [7]) is 81%. Further, the inhibition in vivo at 30 mg/kg in assay [2] (setting [8]) amounted to 91%.

Turning to `c1ccc2sc(Oc3ccc(OCCn4nnnc4C4CCNCC4)cc3)nc2c1` [Example 206, 2-{4-[2-(5-Piperidin-4-yl-tetrazol-1-yl)-ethoxy]-phenoxy}-benzothiazole], the pIC50 is 8.40 in assay [5] and 7.37 in assay [6] (setting [9]). The inhibition at 30 mg/kg in assay [1] (setting [7]) came to 67%. The inhibition in vivo at 30 mg/kg in assay [2] (setting [8]) came out at 76%.

Turning to `CC(=O)N(C)C1CCN(Cc2ccc(Oc3nc4ccccc4s3)cc2)CC1` [Example 471, N-{1-[4-(Benzothiazol-2-yloxy)-benzyl]-piperidin-4-yl}-N-methyl-acetamide], the pIC50 in assay [5] is 7.72. In addition, in assay [1] (setting [7]), the inhibition at 30 mg/kg is 90%. Besides, the inhibition in vivo at 30 mg/kg in assay [2] (setting [8]) is 89%.

On to `OC1(c2ccccc2)CCN(CCCOc2ccc(Oc3nc4ccccc4o3)cc2)CC1` [Example 27, 1-{3-[4-(Benzooxazol-2-yloxy)-phenoxy]-propyl}-4-phenyl-piperidin-4-ol], for which the pIC50 is 8.15 in assay [5] and 6.84 in assay [6] (Mus musculus). For the same compound, the inhibition at 30 mg/kg in assay [1] (po, 3 h) is 50%. In addition, in assay [2] (setting [8]), the inhibition in vivo at 30 mg/kg turned out to be 72%.

On to `CS(=O)(=O)NC1CCN(Cc2ccc(Oc3nc4ccccc4s3)cc2)CC1` [Example 361, N-{1-[4-(Benzothiazol-2-yloxy)-benzyl]-piperidin-4-yl}-methanesulfonamide], for which the pIC50 in assay [5] is 8.10. Also, in assay [1] (setting [7]), the inhibition at 30 mg/kg came to 86%. Moreover, the inhibition in vivo at 30 mg/kg in assay [2] (setting [8]) was found to be 90%.

As for `O=C1C[C@@H](O)CN1C1CCN(Cc2ccc(Oc3nc4ccccc4s3)cc2)CC1` [Example 446, 1-{1-[4-(Benzothiazol-2-yloxy)-benzyl]-piperidin-4-yl}-4-hydroxy-pyrrolidin-2-one], the pIC50 in assay [5] was 8.10; in assay [6] (setting [9]), 6.88. In addition, the inhibition at 30 mg/kg in assay [1] (setting [7]) was 64%. In addition, the inhibition in vivo at 30 mg/kg in assay [2] (setting [8]) was determined as 43%.

`O=C(O)C1CCCN(CCc2ccc(Oc3nc4ccccc4s3)cc2)C1` (stereo not drawn) [Example 155, 1-{2-[4-(Benzothiazol-2-yloxy)-phenyl]-ethyl}-piperidine-3-carboxylic acid]: the pIC50 in assay [5] is 8.05; in assay [6] (setting [9]), 6.90. In addition, in assay [1] (setting [7]), the inhibition at 30 mg/kg stood at 96%. The inhibition in vivo at 30 mg/kg in assay [2] (setting [8]) amounted to 93%.

In the case of `OCC1CCN(Cc2ccc(Oc3nc4ccccc4s3)cc2)CC1` [Example 360, {1-[4-(Benzothiazol-2-yloxy)-benzyl]-piperidin-4-yl}-methanol], the pIC50 in assay [5] was 7.48; in assay [6] (setting [9]) it was 6.61. Moreover, the inhibition at 30 mg/kg in assay [1] (setting [7]) came out at 87%. Also, the inhibition in vivo at 30 mg/kg in assay [2] (setting [8]) is 88%.

With `O=C(O)CCN(CCc1ccc(Oc2nc3ccccc3s2)cc1)CC1CC1` [Example 180, 3-({2-[4-(Benzothiazol-2-yloxy)-phenyl]-ethyl}-cyclopropylmethyl-amino)-propionic acid], the pIC50 in assay [5] is 8.70; in assay [6] (setting [9]), 7.82. For the same compound, the inhibition at 30 mg/kg in assay [1] (setting [7]) worked out at 87%. Further, in assay [2] (setting [8]), the inhibition in vivo at 30 mg/kg came to 87%.

Consider `OC1CCN(CCOc2ccc(Oc3nc4ccccc4o3)cc2)CC1` [Example 14, 1-{2-[4-(Benzooxazol-2-yloxy)-phenoxy]-ethyl}-piperidin-4-ol], for which the pIC50 in assay [6] (Mus musculus) is 7.05. Moreover, in assay [1] (setting [7]), the inhibition at 30 mg/kg stood at 81%. For the same compound, the inhibition in vivo at 30 mg/kg in assay [2] (setting [8]) was determined as 56%.

With `NC(=O)C1CCN(Cc2ccc(Oc3nc4ccccc4s3)cc2)CC1` [Example 274, 1-[4-(Benzothiazol-2-yloxy)-benzyl]-piperidine-4-carboxylic acid amide], the inhibition at 30 mg/kg in assay [1] (setting [7]) was 93%. For the same compound, the inhibition in vivo at 30 mg/kg in assay [2] (setting [8]) came out at 87%.

Regarding `O=C1C[C@H](O)CN1C1CCN(CCc2ccc(Oc3nc4ccccc4s3)cc2)CC1` [Example 336, (S)-1-(1-{2-[4-(Benzothiazol-2-yloxy)-phenyl]-ethyl}-piperidin-4-yl)-4-hydroxy-pyrrolidin-2-one], the pIC50 in assay [5] is 7.62; in assay [6] (setting [9]), 6.82. For the same compound, the inhibition at 30 mg/kg in assay [1] (setting [7]) was 67%. Further, in assay [2] (setting [8]), the inhibition in vivo at 30 mg/kg stood at 0%.

Turning to `O=C(O)C1CCN(CCOc2ccc(Oc3nc4ccccc4s3)cc2)CC1` [Example 18, 1-{2-[4-(Benzothiazol-2-yloxy)-phenoxy]-ethyl}-piperidine-4-carboxylic acid potassium salt], the pIC50 was 8.22 in assay [5] and 6.79 in assay [6] (Mus musculus). In addition, the inhibition at 30 mg/kg in assay [1] (po, 3 h) worked out at 78%. Besides, the inhibition in vivo at 30 mg/kg in assay [2] (po, 3 h) is 83%.

With `O=C1C[C@H](O)CN1C1CCN(Cc2ccc(Oc3nc4ccccc4s3)cc2)CC1` [Example 447, 1-{1-[4-(Benzothiazol-2-yloxy)-benzyl]-piperidin-4-yl}-4-hydroxy-pyrrolidin-2-one], the results for the pIC50 in assay [5] and in assay [6] (setting [9]) were 7.55 and 6.62, respectively. Moreover, the inhibition at 30 mg/kg in assay [1] (setting [7]) was determined as 90%. Also, the inhibition in vivo at 30 mg/kg in assay [2] (setting [8]) was determined as 48%.

Regarding `O=C1C[C@H](O)CN1C1CCN(CCOc2ccc(Oc3nc4ccccc4s3)cc2)CC1` [Example 207, (S)-1-(1-{2-[4-(Benzothiazol-2-yloxy)-phenoxy]-ethyl}-piperidin-4-yl)-4-hydroxy-pyrrolidin-2-one], the pIC50 in assay [5] is 7.80; in assay [6] (setting [9]), 7.09.

Turning to `OC1CCN(CCc2ccc(Oc3nc4ccccc4o3)cc2)CC1` [Example 94, 1-{2-[4-(Benzooxazol-2-yloxy)-phenyl]-ethyl}-piperidin-4-ol], the values for the pIC50 in assay [5] and in assay [6] (setting [9]) were 9.00 and 7.14, respectively.
